In general, bioavailability refers to the share of a dose that reaches the circulation, judged against a reference dose that is usually intravenous. A lower bioavailability goes with poor availability. One may read the half-life as the time needed for the level to fall by half in the phase considered. By Cmax is commonly meant the maximum level reached in the sampled fluid or tissue. In general, IC50 refers to the point on the concentration scale where inhibition reaches its midpoint. The EC50 is the concentration at which the effect is half-maximal. Broadly, the inhibition is the share of the control response that was lost under treatment. As a reminder, the Tmax is the time from dosing to the highest level.

The values below come from ChEMBL document CHEMBL5537179, “Combination Therapy and Dual-Target Inhibitors Based on LSD1: New Emerging Tools in Cancer Therapy” (J Med Chem, 2024).

A short description of data set [1]: Oral bioavailability in mouse. In kind it is ADME, organism-based. The following applies: in vivo.
Data set [2] can be described thus: Half life in CD-1 mouse at 2 mg/kg, iv. It is filed as ADME, organism-based. The following applies: in vivo.
The nature of data set [3]: Cmax in CD-1 mouse at 2 mg/kg, iv. In kind it is ADME, organism-based. The following applies: in vivo.
Data set [4] has as its target T1, Histone deacetylase 1 (Homo sapiens, UniProt Q13547). Put plainly: Inhibition of human recombinant HDAC1 using fluorogenic HDAC substrate preincubated for 30 mins followed by substrate addition and measured after 15 mins by fluorescence based assay.
Data set [5] can be described thus: Half life in human plasma. It is filed as ADME, cell-free.
The target in data set [6] is DCN1-like protein 1 (Homo sapiens, UniProt Q96GG9). Put plainly: Inhibition of DCN1 (unknown origin) by TR-FRET analysis. For orientation: Time-resolved FRET reads energy transfer from a long-lived donor to a nearby acceptor.
Sequence of DCN1-like protein 1 (Q96GG9 whole entry): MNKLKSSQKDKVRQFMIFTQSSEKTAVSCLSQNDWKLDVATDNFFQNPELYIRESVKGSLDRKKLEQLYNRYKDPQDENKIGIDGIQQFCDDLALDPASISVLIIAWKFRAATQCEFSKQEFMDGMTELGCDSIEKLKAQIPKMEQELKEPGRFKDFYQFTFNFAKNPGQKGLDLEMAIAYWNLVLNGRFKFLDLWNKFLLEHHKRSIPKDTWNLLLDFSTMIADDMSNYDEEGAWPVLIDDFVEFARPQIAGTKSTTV
In data set [7] the target is Lysine-specific demethylase 6A (Homo sapiens, UniProt O15550). Put plainly: Inhibition of human UTX using Biotin-KAPRKQLATKAARK(me3)SAPATGG as substrate by MALDI-TOF analysis.
Sequence of Lysine-specific demethylase 6A (O15550 whole entry): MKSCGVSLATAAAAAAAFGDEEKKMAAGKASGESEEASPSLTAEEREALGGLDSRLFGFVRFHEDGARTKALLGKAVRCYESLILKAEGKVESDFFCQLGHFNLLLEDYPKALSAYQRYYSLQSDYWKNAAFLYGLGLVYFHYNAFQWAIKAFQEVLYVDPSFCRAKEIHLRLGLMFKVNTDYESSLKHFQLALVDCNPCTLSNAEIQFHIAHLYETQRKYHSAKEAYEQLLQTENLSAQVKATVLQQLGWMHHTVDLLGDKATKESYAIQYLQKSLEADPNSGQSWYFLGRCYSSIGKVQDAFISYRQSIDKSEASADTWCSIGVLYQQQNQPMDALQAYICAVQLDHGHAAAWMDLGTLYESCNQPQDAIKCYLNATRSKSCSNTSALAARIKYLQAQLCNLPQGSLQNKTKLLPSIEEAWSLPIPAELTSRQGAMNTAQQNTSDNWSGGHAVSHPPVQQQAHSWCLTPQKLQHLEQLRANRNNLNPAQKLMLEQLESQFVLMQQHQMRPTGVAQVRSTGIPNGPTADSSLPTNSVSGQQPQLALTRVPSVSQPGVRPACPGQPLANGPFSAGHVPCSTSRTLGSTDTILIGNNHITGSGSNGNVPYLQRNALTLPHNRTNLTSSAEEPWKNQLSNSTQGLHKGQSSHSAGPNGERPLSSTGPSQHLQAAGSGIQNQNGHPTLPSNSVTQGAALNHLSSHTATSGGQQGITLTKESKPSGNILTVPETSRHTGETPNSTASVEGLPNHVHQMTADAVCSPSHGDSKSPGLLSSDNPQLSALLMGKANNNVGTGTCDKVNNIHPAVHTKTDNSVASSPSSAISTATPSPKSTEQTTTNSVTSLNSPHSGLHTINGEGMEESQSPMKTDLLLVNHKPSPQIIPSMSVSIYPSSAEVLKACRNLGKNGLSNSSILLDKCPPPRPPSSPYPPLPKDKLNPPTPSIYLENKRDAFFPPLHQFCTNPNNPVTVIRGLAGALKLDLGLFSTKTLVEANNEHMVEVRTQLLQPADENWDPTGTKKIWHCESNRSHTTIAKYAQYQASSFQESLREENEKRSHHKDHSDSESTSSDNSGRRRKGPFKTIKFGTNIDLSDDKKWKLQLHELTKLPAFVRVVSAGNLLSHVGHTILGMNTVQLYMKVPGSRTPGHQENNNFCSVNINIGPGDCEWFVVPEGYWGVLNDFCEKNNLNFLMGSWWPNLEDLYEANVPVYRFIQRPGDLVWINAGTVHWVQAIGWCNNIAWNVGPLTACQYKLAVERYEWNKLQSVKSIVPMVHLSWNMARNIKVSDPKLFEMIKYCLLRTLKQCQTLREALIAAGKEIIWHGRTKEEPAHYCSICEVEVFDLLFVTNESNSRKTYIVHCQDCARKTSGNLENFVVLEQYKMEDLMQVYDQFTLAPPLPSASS
Data set [8] has as its target T2, Lysine-specific histone demethylase 1A (Homo sapiens, UniProt O60341).
In data set [9] the test system is Leukemia cell. Put plainly: Antitumor activity against human Leukemia cells assessed as reduction in cell growth incubated for 72 hrs by MTT assay. It is filed as functional, cell-based. (Tetrazolium dyes change colour on reduction, which living cells bring about.)
Data set [10] can be described thus: Half life in BALB/c mouse plasma at 5 mg/kg, ip measured after 24 hrs by LC-MS/MS analysis. In kind it is ADME, organism-based.
A short description of data set [11]: Oral bioavailability in BALB/c mouse at 5 mg/kg measured after 24 hrs by LC-MS/MS analysis. In kind it is ADME, organism-based. The following applies: in vivo.
The target in data set [12] is Tubulin. Put plainly: Inhibition of tubulin polymerization (unknown origin) by fluorescence based assay. In kind it is protein-complex assay, Homo sapiens.
The target in data set [13] is T2, Lysine-specific histone demethylase 1A. Put plainly: Inhibition of human LSD1 expressed in Escherichia coli Rosetta (DE3) cells using H3K4me2 peptide as substrate and measured after 1 hr by fluorescence based analysis.
Data set [14] addresses T3, Bromodomain-containing protein 4 (Homo sapiens, UniProt O60885). Put plainly: Inhibition of human BRD4 BD1 by TR-FRET assay.
Data set [15] addresses T3, Bromodomain-containing protein 4. Put plainly: Inhibition of human BRD4 BD2 by TR-FRET assay.
Data set [16] concerns the target Spermine oxidase (Homo sapiens, UniProt Q9NWM0). Put plainly: Inhibition of SMOX (unknown origin) using spermine as substrate preincubated for 1 hr followed by substrate addition and measured after 20 mins by luminometer analysis.
For data set [17], the target named is T2, Lysine-specific histone demethylase 1A. Put plainly: Inhibition of human LSD1 by luminescence assay.
The target of data set [18] is T1, Histone deacetylase 1. Put plainly: Inhibition of HDAC1 (unknown origin).
Data set [19] concerns the target T2, Lysine-specific histone demethylase 1A. Put plainly: Inhibition of LSD1 (unknown origin) at 10 uM relative to control.
A short description of data set [20]: Tmax in human at 5 mg/kg, po. In kind it is ADME, organism-based. The following applies: in vivo.
A short description of data set [21]: Cmax in human at 5 mg/kg, po. In kind it is ADME, organism-based. The following applies: in vivo.
In data set [22] the test system is MV4-11. Put plainly: cells. The note with it: Homo sapiens, MV4-11, 72 h.
Data set [23] has as its system Kasumi 1. Put plainly: cells. The note with it: Homo sapiens, Kasumi 1, 168 h.
Data set [24] in a line: in vitro. The following applies: human, THP-1 cells.

T1 sequence (Q13547 whole entry): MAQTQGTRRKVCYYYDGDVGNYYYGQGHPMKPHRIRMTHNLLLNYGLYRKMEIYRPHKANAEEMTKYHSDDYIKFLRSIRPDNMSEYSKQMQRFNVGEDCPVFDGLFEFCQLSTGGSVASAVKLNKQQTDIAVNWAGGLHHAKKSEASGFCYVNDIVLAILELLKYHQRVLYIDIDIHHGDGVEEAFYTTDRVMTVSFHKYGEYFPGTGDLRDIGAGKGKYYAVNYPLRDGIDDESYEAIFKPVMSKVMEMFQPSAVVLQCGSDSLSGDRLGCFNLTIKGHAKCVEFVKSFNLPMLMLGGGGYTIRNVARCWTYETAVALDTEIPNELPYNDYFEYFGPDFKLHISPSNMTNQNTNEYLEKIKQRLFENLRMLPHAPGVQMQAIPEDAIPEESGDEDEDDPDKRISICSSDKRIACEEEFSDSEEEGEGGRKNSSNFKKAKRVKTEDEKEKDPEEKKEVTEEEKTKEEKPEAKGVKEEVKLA
Sequence of Spermine oxidase (Q9NWM0 whole entry): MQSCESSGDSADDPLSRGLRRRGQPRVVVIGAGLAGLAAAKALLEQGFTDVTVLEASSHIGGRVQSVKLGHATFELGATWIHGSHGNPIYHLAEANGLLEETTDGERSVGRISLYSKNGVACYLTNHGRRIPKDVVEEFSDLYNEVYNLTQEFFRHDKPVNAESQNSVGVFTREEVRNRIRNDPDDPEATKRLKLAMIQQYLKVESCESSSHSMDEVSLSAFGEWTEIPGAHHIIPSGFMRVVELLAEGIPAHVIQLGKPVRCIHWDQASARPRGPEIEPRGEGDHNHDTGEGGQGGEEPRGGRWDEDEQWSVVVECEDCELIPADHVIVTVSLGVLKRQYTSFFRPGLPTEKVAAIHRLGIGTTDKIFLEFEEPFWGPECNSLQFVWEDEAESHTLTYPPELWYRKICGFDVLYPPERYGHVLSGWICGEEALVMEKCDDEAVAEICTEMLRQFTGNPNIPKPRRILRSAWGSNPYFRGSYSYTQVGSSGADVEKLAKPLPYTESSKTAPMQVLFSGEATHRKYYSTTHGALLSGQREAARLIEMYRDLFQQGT

The compound `O=C(O)c1ccc(CN2CCC(CN[C@@H]3C[C@H]3c3ccccc3)CC2)cc1` [GSK2879552] had a bioavailability in [1] of 59.2%. Further, the half-life in data set [2] is 1.9 h. In data set [3], this compound came in with a peak concentration (Cmax) of 720 ng/mL.
Consider `NC1CC1c1ccc(NC(=O)CCCc2ccccc2)cc1` (stereo not given), for which, in [4], the IC50 was > 30000 nM.
In turn, `Nc1nnc(CN[C@@H]2C[C@H]2c2ccc(OCc3ccccc3)cc2)o1` showed a half-life in data set [5] of 22 h.
`CN(C)CCn1nnnc1Sc1ccnc2nc(SCc3ccc(Br)cc3)nn12` registered an IC50 in data set [6] of 14.8 nM.
As to `NC1CC1c1ccc(NC(=O)c2ccc(O)c3ncccc23)cc1` (stereo not given), the IC50 is 27000 nM in data set [7] and < 1000 nM in data set [8].
On to `N[C@H]1CC[C@H](N[C@@H]2C[C@H]2c2ccccc2)CC1`, for which the half-maximal effective concentration (EC50) in data set [9] was found to be 0.1 nM. For the same compound, the half-life in data set [10] is 10 h. The bioavailability in data set [11] was 77%.
Turning to `O=S1(=O)CCCN(S(=O)(=O)c2ccc(-c3cnc(C4CC4)o3)cc2)c2ccccc21`, the half-inhibitory concentration (IC50) in [12] worked out at 3100 nM; in data set [13], 2800 nM.
On to `C/C(=N\NC(=O)c1cccc(S(=O)(=O)N2CCOCC2)c1)c1cc(Cl)ccc1O`, for which the IC50 in data set [14] is 77 nM; in data set [15], 33 nM.
In data set [16], `C=C/C=C/c1cccc(Oc2cccc(Cl)c2CNc2nc(N)n[nH]2)c1/C=C/C=C` displayed a half-maximal inhibitory concentration (IC50) of 148000 nM.
On to `COC(=O)/C=C/c1ccc(CN(C(=O)OC(C)(C)C)C2CC2c2ccc(F)cc2)cc1` (stereo not given), for which, in data set [17], the 50% inhibitory concentration (IC50) came to 50 nM.
Regarding `Nc1ccccc1NC(=O)c1ccc(CCCC(=O)Nc2ccc(C3CC3N)cc2)cc1` (stereo not given), the IC50 in data set [18] and in data set [8] was 300 nM each time.
Turning to `Nc1n[nH]c(NCc2ccccc2Oc2ccc(-c3ccccc3)cc2)n1`, the inhibition in [19] was 52.1%.
With `COc1ccc(-c2c(-c3ccc(C#N)c(F)c3)nc(N3CCC(N)CC3)n(C)c2=O)cc1F.O=S(=O)(O)c1ccccc1` [PULRODEMSTAT BESILATE], the Tmax in data set [20] stood at 4 h. Besides, the peak level in data set [21] (Cmax) was 19 ng/mL. Besides, the IC50 in [22] is 1400 nM; in data set [23], 2 nM. This compound gave a half-maximal inhibitory concentration (IC50) at 72 h in [24] of 7 nM.
